# Measured values taken from US7589104B2, “Tricyclic-bridged piperidinyline derivatives as §-opioid modulators” (Janssen Pharmaceutica NV, priority 2004, dated 2009).
# Where two headings read alike, the source gives them in different places.
# How the values were obtained:
# delta opioid receptor [1] = target: T1, delta opioid receptor (Rattus norvegicus, UniProt P33533); experiment: Rat Brain Delta Opioid Receptor Binding Assay
# T1 construct: from tissue; host or cells: forebrain of male Wistar rats (Charles River)
# mu opioid receptor = target: T2, mu opioid receptor (Rattus norvegicus, UniProt P33535); experiment: Rat Brain Mu Opioid Receptor Binding Assay
# T2 construct: Following incubation with the mu selective peptide ligand, ˜0.8 nM [^3H]DAMGO; from tissue; host or cells: forebrain of male Wistar rats (Charles River)
# delta opioid receptor [2] = target: T3, delta opioid receptor (Mus musculus, UniProt P32300); experiment: [35S]GTPγS Binding Assay in NG108-15 Cell Membranes (Delta Opioid); format: biochemical; conditions: for delta GTPgS Rel Eff: relative efficacy
# T3 construct: NG108-15 cell membranes were purchased from Applied Cell Sciences (Rockville, Md.); host or cells: NG108-15 cell membranes (purchased)
# Experimental: Methods: NG108-15 cell membranes were purchased from Applied Cell Sciences (Rockville, Md.). 8 mg/mL of membrane protein suspended in 10 mM TRIS-HCl pH 7.2, 2 mM EDTA, 10% sucrose. Membranes were maintained at 4-8° C. A 1 mL volume of membranes was added into 10 mL cold binding assay buffer. The assay buffer contained 50 mM Tris, pH 7.6, 5 mM MgCl2, 100 mM NaCl, 1 mM DTT and 1 mM EGTA. The membrane suspension was homogenized twice with a Polytron, and centrifuged at 3000 rpm for 10 min. The supernatant was then centrifuged at 18,000 rpm for 20 min. Ten mL assay buffer was added into the pellet containing tube. The pellet and buffer were mixed with a Polytron.
# Incubation procedure: The pellet membranes (75 μg/mL) were preincubated with SPA (10 mg/mL) at 25° C. for 45 min in the assay buffer. […] GTPγS in the same Tris buffer containing 100 μM GDP in total volume of 200 μL. Increasing concentrations of receptor agonists were used to stimulate [35S]- GTPγS binding. The basal binding was tested in the absence of agonists and non-specific binding was tested in the presence of 10 μM unlabeled GTPγS. The data were analyzed on a Packard Top Count.
# % of Basal=(stimulated−non specific)*100/(basal−non specific). EC50 values were calculated using GraphPad Prism.
# [3] = rat forebrain membranes, [3H]DPDPE or [3H]naltrindole, read-out: delta (Ki)
# [4] = rat forebrain membranes, [3H]DAMGO, read-out: mu (Ki)
# T1 sequence (P33533 whole entry): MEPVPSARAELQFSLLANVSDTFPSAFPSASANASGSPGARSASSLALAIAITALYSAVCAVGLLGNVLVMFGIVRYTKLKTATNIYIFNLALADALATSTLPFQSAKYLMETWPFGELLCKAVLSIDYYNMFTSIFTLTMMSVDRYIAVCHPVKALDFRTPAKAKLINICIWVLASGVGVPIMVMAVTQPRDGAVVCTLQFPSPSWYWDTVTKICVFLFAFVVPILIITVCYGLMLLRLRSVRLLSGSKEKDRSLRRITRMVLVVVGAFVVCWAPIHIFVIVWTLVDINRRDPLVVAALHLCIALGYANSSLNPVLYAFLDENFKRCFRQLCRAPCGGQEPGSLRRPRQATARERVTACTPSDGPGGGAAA
# T2 sequence (P33535 whole entry): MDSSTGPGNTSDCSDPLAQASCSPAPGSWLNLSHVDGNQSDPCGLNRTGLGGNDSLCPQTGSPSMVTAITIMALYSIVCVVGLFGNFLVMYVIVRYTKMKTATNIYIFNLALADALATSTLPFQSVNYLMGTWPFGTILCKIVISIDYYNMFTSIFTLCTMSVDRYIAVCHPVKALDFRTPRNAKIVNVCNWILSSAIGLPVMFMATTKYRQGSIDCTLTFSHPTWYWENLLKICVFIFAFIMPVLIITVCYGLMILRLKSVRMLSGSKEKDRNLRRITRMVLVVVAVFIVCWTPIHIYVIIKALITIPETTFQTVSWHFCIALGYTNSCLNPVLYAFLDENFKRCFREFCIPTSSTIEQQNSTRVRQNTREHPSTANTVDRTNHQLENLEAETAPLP
# T3 sequence (P32300 whole entry): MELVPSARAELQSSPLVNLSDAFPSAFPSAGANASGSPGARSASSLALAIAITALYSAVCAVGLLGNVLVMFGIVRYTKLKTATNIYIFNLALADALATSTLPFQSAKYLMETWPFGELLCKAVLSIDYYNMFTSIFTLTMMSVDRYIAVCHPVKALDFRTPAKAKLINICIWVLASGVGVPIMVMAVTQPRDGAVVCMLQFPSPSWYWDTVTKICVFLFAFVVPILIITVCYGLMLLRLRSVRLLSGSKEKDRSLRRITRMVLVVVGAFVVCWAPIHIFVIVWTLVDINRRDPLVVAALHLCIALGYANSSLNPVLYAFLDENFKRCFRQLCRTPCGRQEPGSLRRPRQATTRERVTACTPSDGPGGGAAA
compound,measurement,setting,value
9-(8-Furan-3-ylmethyl-8-aza-bicyclo[3.2.1]oct-3-ylidene)-9H-xanthene-3-carboxylic acid diethylamide [Compound 10a],Ki,delta opioid receptor [1]; [3],12.3 nM
same,Ki,mu opioid receptor; [4],546 nM
same,delta GTPgS Rel Eff,delta opioid receptor [2]; NG108-15 cell membranes,0.75
same,EC50,"delta opioid receptor [2]; NG108-15 cell membranes, stimulation of [35S]GTPγS binding, read-out: delta GTPgS EC50",21.1 nM
"CCN(CC)C(=O)c1ccc2c(c1)Oc1c(OC)cccc1C2C1CC2CCC(C1)N2 (stereo not shown) [Compound 7c, 9-(8-Aza-bicyclo[3.2.1]oct-3-yl)-5-methoxy-9H-xanthene-3-carboxylic acid diethylamide]",Ki,delta opioid receptor [1],3.1 nM
same,Ki,mu opioid receptor,463 nM
same,EC50,delta opioid receptor [2],29.2 nM
same,delta GTPgS Rel Eff,delta opioid receptor [2]; NG108-15 cell membranes,0.80
"CCN(CC)C(=O)c1ccc2c(c1)Oc1ccc(F)cc1C2C1CC2CCC(C1)N2 (stereo not shown) [Compound 7e, 9-(8-Aza-bicyclo[3.2.1]oct-3-yl)-7-fluoro-9H-xanthene-3-carboxylic acid diethylamide]",Ki,delta opioid receptor [1],294 nM
same,Ki,mu opioid receptor,44000 nM
"CCN(CC)C(=O)c1ccc2c(c1)Oc1ccc(Br)cc1C2C1CC2CCC(C1)N2 (stereo not shown) [Compound 7f, 9-(8-Aza-bicyclo[3.2.1]oct-3-yl)-7-bromo-9H-xanthene-3-carboxylic acid diethylamide]",Ki,delta opioid receptor [1],174 nM
same,Ki,mu opioid receptor,1750 nM
"COc1cccc2c1Oc1cc(-c3cccnc3)ccc1C2C1CC2CCC(C1)N2 (stereo not shown) [Compound 7k, 3-(5-Methoxy-3-pyridin-3-yl-9H-xanthen-9-yl)-8-aza-bicyclo[3.2.1]octane]",Ki,delta opioid receptor [1]; [3],655 nM
same,Ki,mu opioid receptor; [4],7740 nM
"c1ccc2c(c1)Oc1cc(-c3cnc4ccccc4c3)ccc1C2C1CC2CCC(C1)N2 (stereo not shown) [Compound 8b, 3-[9-(8-Aza-bicyclo[3.2.1]oct-3-yl)-9H-xanthen-3-yl]-quinoline]",Ki,delta opioid receptor [1],4860 nM
same,Ki,mu opioid receptor,27700 nM
"CCN(CC)C(=O)c1ccc2c(c1)Oc1c(O)cccc1C2C1CC2CCC(C1)N2 (stereo not shown) [Compound 8c, 9-(8-Aza-bicyclo[3.2.1]oct-3-yl)-5-hydroxy-9H-xanthene-3-carboxylic acid diethylamide]",Ki,delta opioid receptor [1],1.29 nM
same,Ki,mu opioid receptor,75 nM
same,EC50,delta opioid receptor [2],5 nM
same,delta GTPgS Rel Eff,delta opioid receptor [2]; NG108-15 cell membranes,0.85
"Oc1cccc2c1Oc1cc(-c3cccnc3)ccc1C2C1CC2CCC(C1)N2 (stereo not shown) [Compound 8k, 9-(8-Aza-bicyclo[3.2.1]oct-3-yl)-6-pyridin-3-yl-9H-xanthen-4-ol]",Ki,delta opioid receptor [1],9.61 nM
same,Ki,mu opioid receptor,27.2 nM
"CCN(CC)C(=O)c1ccc2c(c1)Oc1ccccc1C2C1CC2CCC(C1)N2 (stereo not shown) [Compound 9a, 9-(8-Aza-bicyclo[3.2.1]oct-3-yl)-9H-xanthene-3-carboxylic acid diethylamide]",Ki,delta opioid receptor [1],140 nM
same,Ki,mu opioid receptor,6450 nM
"c1cncc(-c2ccc3c(c2)Oc2ccccc2C3C2CC3CCC(C2)N3Cc2cccs2)c1 (stereo not shown) [Compound 9b, 3-(3-Pyridin-3-yl-9H-xanthen-9-yl)-8-thiophen-2-ylmethyl-8-aza-bicyclo[3.2.1]octane]",Ki,delta opioid receptor [1],182 nM
same,Ki,mu opioid receptor,1610 nM
"CCN(CC)C(=O)c1ccc2c(c1)Oc1c(O)cccc1C2C1CC2CCC(C1)N2Cc1ccoc1 (stereo not shown) [Compound 9c, 9-(8-Furan-3-ylmethyl-8-aza-bicyclo[3.2.1]oct-3-yl)-5-hydroxy-9H-xanthene-3-carboxylic acid diethylamide]",Ki,delta opioid receptor [1],0.73 nM
same,Ki,mu opioid receptor,73 nM
same,EC50,delta opioid receptor [2],4.6 nM
same,delta GTPgS Rel Eff,delta opioid receptor [2]; NG108-15 cell membranes,1.02
"c1ccc(CN2C3CCC2CC(C2c4ccccc4Oc4cc(-c5cccnc5)ccc42)C3)nc1 (stereo not shown) [Compound 10b, 8-Pyridin-2-ylmethyl-3-(3-pyridin-3-yl-9H-xanthen-9-yl)-8-aza-bicyclo[3.2.1]octane]",Ki,delta opioid receptor [1],211 nM
same,Ki,mu opioid receptor,350 nM
"c1ccc(CN2C3CCC2CC(C2c4ccccc4Oc4cc(-c5cccnc5)ccc42)C3)cc1 (stereo not shown) [Compound 11b, 8-Benzyl-3-(3-pyridin-3-yl-9H-xanthen-9-yl)-8-aza-bicyclo[3.2.1]octane]",Ki,delta opioid receptor [1],70.4 nM
same,Ki,mu opioid receptor,955 nM
"CCN(CC)C(=O)c1ccc2c(c1)Oc1ccccc1C2C1CC2CCC(C1)N2CCc1ccccc1 (stereo not shown) [Compound 12a, 9-(8-Phenethyl-8-aza-bicyclo[3.2.1]oct-3-yl)-9H-xanthene-3-carboxylic acid diethylamide]",Ki,delta opioid receptor [1],200 nM
same,Ki,mu opioid receptor,667 nM
"c1ccc(CCN2C3CCC2CC(C2c4ccccc4Oc4cc(-c5cccnc5)ccc42)C3)cc1 (stereo not shown) [Compound 12b, 8-Phenethyl-3-(3-pyridin-3-yl-9H-xanthen-9-yl)-8-aza-bicyclo[3.2.1]octane]",Ki,delta opioid receptor [1],794 nM
same,Ki,mu opioid receptor,293 nM
"CCN(CC)C(=O)c1ccc2c(c1)Oc1ccccc1C2C1CC2CCC(C1)N2Cc1ccco1 (stereo not shown) [Compound 13a, 9-(8-Furan-2-ylmethyl-8-aza-bicyclo[3.2.1]oct-3-yl)-9H-xanthene-3-carboxylic acid diethylamide]",Ki,delta opioid receptor [1],42 nM
same,Ki,mu opioid receptor,3020 nM
"CC(=O)Nc1ccccc1-c1ccc2c(c1)Oc1ccccc1C2C1CC2CCC(C1)N2Cc1ccoc1 (stereo not shown) [Compound 13b, N-{2-[9-(8-Furan-3-ylmethyl-8-aza-bicyclo[3.2.1]oct-3-yl)-9H-xanthen-3-yl]-phenyl}-acetamide]",Ki,delta opioid receptor [1],38.7 nM
same,Ki,mu opioid receptor,1490 nM
"CC(=O)Nc1ccccc1-c1ccc2c(c1)Oc1ccccc1C2C1CC2CCC(C1)N2Cc1cccs1 (stereo not shown) [Compound 14b, N-{2-[9-(8-Thiophen-2-ylmethyl-8-aza-bicyclo[3.2.1]oct-3-yl)-9H-xanthen-3-yl]-phenyl}-acetamide]",Ki,delta opioid receptor [1],78.1 nM
same,Ki,mu opioid receptor,2150 nM
"COc1cccc2c1Oc1cc(Br)ccc1C2C1CC2CCC(C1)N2 (stereo not shown) [Compound 14k, 3-(3-Bromo-5-methoxy-9H-xanthen-9-yl)-8-aza-bicyclo[3.2.1]octane]",Ki,delta opioid receptor [1],2880 nM
same,Ki,mu opioid receptor,7380 nM
"CC(=O)Nc1ccccc1-c1ccc2c(c1)Oc1ccccc1C2C1CC2CCC(C1)N2Cc1ccccn1 (stereo not shown) [Compound 15b, N-{2-[9-(8-Pyridin-2-ylmethyl-8-aza-bicyclo[3.2.1]oct-3-yl)-9H-xanthen-3-yl]-phenyl}-acetamide]",Ki,delta opioid receptor [1],102 nM
same,Ki,mu opioid receptor,947 nM
"CCN(CC)C(=O)c1ccc2c(c1)Oc1ccccc1C2C1CC2CCC(C1)N2Cc1ncc[nH]1 (stereo not shown) [Compound 16a, 9-[8-(1H-Imidazol-2-ylmethyl)-8-aza-bicyclo[3.2.1]oct-3-yl]-9H-xanthene-3-carboxylic acid diethylamide]",Ki,delta opioid receptor [1],114 nM
same,Ki,mu opioid receptor,2000 nM
"CC(=O)Nc1ccccc1-c1ccc2c(c1)Oc1ccccc1C2C1CC2CCC(C1)N2Cc1ccccc1 (stereo not shown) [Compound 16b, N-{2-[9-(8-Benzyl-8-aza-bicyclo[3.2.1]oct-3-yl)-9H-xanthen-3-yl]-phenyl}-acetamide]",Ki,delta opioid receptor [1],> 10000 nM
same,Ki,mu opioid receptor,> 10000 nM
"CCN(CC)C(=O)c1ccc2c(c1)Oc1ccccc1C2C1CC2CCC(C1)N2C (stereo not shown) [Compound 17a, 9-(8-Methyl-8-aza-bicyclo[3.2.1]oct-3-yl)-9H-xanthene-3-carboxylic acid diethylamide]",Ki,delta opioid receptor [1],> 10000 nM
same,Ki,mu opioid receptor,> 10000 nM
"CC(=O)Nc1ccccc1-c1ccc2c(c1)Oc1ccccc1C2C1CC2CCC(C1)N2CCc1ccccc1 (stereo not shown) [Compound 17b, N-{2-[9-(8-Phenethyl-8-aza-bicyclo[3.2.1]oct-3-yl)-9H-xanthen-3-yl]-phenyl}-acetamide]",Ki,delta opioid receptor [1],64.8 nM
same,Ki,mu opioid receptor; [4],116 nM
"C=CCN1C2CCC1CC(C1c3ccccc3Oc3cc(-c4ccccc4NC(C)=O)ccc31)C2 (stereo not shown) [Compound 18b, N-{2-[9-(8-Allyl-8-aza-bicyclo[3.2.1]oct-3-yl)-9H-xanthen-3-yl]-phenyl}-acetamide]",Ki,delta opioid receptor [1]; [3],408 nM
same,Ki,mu opioid receptor; [4],3200 nM
"c1ccc2c(c1)Oc1cc(-c3ccncc3)ccc1C2C1CC2CCC(C1)N2 (stereo not shown) [Compound 20b, 3-(3-Pyridin-4-yl-9H-xanthen-9-yl)-8-aza-bicyclo[3.2.1]octane]",Ki,delta opioid receptor [1],194 nM
same,Ki,mu opioid receptor,3490 nM
"c1csc(CN2C3CCC2CC(C2c4ccccc4Oc4cc(-c5ccncc5)ccc42)C3)c1 (stereo not shown) [Compound 21b, 3-(3-Pyridin-4-yl-9H-xanthen-9-yl)-8-thiophen-2-ylmethyl-8-aza-bicyclo[3.2.1]octane]",Ki,delta opioid receptor [1],98 nM
same,Ki,mu opioid receptor,930 nM
"c1ccc(CN2C3CCC2CC(C2c4ccccc4Oc4cc(-c5ccncc5)ccc42)C3)nc1 (stereo not shown) [Compound 22b, 8-Pyridin-2-ylmethyl-3-(3-pyridin-4-yl-9H-xanthen-9-yl)-8-aza-bicyclo[3.2.1]octane]",Ki,delta opioid receptor [1],71.6 nM
same,Ki,mu opioid receptor,305 nM
"c1ccc(CN2C3CCC2CC(C2c4ccccc4Oc4cc(-c5ccncc5)ccc42)C3)cc1 (stereo not shown) [Compound 23b, 8-Benzyl-3-(3-pyridin-4-yl-9H-xanthen-9-yl)-8-aza-bicyclo[3.2.1]octane]",Ki,delta opioid receptor [1],99.7 nM
same,Ki,mu opioid receptor,890 nM
"c1ccc(CCN2C3CCC2CC(C2c4ccccc4Oc4cc(-c5ccncc5)ccc42)C3)cc1 (stereo not shown) [Compound 24b, 8-Phenethyl-3-(3-pyridin-4-yl-9H-xanthen-9-yl)-8-aza-bicyclo[3.2.1]octane]",Ki,delta opioid receptor [1],1590 nM
same,Ki,mu opioid receptor,196 nM
"c1ccc2c(c1)Oc1cc(-c3ccncc3)ccc1C2C1CC2CCC(C1)N2Cc1ccoc1 (stereo not shown) [Compound 25b, 8-Furan-3-ylmethyl-3-(3-pyridin-4-yl-9H-xanthen-9-yl)-8-aza-bicyclo[3.2.1]octane]",Ki,delta opioid receptor [1],22.4 nM
same,Ki,mu opioid receptor,775 nM
